Data as given in PMC11233931, “Remodeling tumor‐associated macrophage for anti‐cancer effects by rational design of irreversible inhibition of mitogen‐activated protein kinase‐activated protein kinase 2” (MedComm, 2024).

Columns and labels:
Assay in all cases: Eurofins kinase selectivity profile against 380 other human recombinant kinases (Table S2)
Type in all cases: biochemical
[1] = target: T1, 380 human recombinant protein kinases (Homo sapiens, UniProt P06213); conditions: IR(h), read-out: Inhibition rate
T1 construct: purchased Eurofins (Celle Lévescault)
T1 sequence (P06213 28-1382): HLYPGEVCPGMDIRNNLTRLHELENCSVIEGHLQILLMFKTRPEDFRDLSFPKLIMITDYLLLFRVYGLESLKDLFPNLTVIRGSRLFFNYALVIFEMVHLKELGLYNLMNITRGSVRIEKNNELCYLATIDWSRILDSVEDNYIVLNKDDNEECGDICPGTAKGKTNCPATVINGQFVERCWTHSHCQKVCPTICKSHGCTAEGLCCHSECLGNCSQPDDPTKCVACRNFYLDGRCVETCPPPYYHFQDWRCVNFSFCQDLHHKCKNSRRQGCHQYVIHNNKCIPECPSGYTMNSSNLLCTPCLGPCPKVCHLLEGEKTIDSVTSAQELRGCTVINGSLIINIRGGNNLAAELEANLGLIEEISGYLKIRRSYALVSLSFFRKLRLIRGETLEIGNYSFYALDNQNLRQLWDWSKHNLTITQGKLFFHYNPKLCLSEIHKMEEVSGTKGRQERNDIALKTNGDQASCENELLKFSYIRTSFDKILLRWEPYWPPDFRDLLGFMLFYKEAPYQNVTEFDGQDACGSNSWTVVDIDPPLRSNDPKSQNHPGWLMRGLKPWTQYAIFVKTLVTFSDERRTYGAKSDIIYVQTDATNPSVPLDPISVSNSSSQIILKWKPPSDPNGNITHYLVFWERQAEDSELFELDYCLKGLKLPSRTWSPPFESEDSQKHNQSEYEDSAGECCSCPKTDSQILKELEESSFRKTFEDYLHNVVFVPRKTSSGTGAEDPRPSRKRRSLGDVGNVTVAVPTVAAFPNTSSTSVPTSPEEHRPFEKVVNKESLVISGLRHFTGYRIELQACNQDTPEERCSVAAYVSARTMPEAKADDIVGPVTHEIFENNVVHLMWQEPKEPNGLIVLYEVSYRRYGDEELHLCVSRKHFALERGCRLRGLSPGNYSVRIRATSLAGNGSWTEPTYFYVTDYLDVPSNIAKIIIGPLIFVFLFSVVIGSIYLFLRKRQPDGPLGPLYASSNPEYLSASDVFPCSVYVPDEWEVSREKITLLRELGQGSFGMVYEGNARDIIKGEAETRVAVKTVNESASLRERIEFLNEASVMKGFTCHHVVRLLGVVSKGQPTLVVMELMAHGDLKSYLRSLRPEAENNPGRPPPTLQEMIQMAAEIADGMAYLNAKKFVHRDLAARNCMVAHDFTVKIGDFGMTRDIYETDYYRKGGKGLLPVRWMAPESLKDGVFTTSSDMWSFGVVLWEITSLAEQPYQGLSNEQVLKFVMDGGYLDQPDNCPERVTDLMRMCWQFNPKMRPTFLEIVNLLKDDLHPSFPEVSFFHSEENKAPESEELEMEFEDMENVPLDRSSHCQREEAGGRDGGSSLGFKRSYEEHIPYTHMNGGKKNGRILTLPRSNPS
Procedure, shortened: (§1)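 The inhibitor was sent to a contract lab and screened at various concentrations against 380 human recombinant protein kinases. This served as a counter-screen for MK2 specificity.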

[2] = target: T2, 380 human recombinant protein kinases (Homo sapiens, UniProt P19784); conditions: CK2α2(h), read-out: Inhibition rate
T2 construct: purchased Eurofins (Celle Lévescault)
T2 sequence (P19784 whole entry): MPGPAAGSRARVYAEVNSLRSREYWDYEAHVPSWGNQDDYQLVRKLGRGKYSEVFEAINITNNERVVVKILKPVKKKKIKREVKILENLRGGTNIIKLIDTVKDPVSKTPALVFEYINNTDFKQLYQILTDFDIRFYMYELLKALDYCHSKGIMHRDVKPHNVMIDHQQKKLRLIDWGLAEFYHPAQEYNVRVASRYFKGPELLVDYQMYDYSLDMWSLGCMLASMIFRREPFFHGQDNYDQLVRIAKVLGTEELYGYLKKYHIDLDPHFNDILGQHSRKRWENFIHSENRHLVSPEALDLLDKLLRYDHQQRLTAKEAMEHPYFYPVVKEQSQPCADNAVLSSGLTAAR
Procedure, shortened: as §1

[3] = target: T3, 380 human recombinant protein kinases (Homo sapiens, UniProt P50750); conditions: CDK9/cyclin T1(h), read-out: Inhibition rate
T3 construct: purchased Eurofins (Celle Lévescault)
T3 sequence (P50750 whole entry): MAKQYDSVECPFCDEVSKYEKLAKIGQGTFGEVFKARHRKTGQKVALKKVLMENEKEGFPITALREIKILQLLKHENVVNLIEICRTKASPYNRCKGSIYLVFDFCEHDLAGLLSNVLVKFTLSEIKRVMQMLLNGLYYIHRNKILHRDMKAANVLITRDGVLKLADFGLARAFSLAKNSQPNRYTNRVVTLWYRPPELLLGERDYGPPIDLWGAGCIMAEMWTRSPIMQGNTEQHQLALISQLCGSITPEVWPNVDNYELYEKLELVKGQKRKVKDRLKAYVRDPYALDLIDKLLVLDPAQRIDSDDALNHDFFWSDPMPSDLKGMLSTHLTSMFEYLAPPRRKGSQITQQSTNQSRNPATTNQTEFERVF
Procedure, shortened: as §1

[4] = target: T4, 380 human recombinant protein kinases (Homo sapiens, UniProt Q15208); conditions: NDR1(h), read-out: Inhibition rate
T4 construct: purchased Eurofins (Celle Lévescault)
T4 sequence (Q15208 whole entry): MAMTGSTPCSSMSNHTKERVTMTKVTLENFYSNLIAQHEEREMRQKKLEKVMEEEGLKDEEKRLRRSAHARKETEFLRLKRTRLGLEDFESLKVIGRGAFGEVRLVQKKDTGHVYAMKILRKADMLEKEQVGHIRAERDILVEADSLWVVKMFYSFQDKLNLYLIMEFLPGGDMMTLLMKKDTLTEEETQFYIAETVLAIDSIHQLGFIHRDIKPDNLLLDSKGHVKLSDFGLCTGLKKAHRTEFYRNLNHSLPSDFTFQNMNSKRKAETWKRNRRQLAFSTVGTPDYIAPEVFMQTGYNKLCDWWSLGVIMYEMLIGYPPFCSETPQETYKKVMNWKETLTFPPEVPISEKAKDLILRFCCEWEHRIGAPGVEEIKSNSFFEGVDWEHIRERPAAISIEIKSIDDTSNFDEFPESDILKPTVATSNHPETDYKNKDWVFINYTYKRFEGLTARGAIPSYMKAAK
Procedure, shortened: as §1

[5] = target: T5, 380 human recombinant protein kinases (Homo sapiens, UniProt Q5TCY1); conditions: TTBK1(h), read-out: Inhibition rate (%)
T5 construct: purchased Eurofins (Celle Lévescault)
Procedure, shortened: as §1

[6] = target: T6, 380 human recombinant protein kinases (Homo sapiens, UniProt Q6DT37); conditions: MRCKγ(h), read-out: Inhibition rate
T6 construct: purchased Eurofins (Celle Lévescault)
T6 sequence (Q6DT37 whole entry): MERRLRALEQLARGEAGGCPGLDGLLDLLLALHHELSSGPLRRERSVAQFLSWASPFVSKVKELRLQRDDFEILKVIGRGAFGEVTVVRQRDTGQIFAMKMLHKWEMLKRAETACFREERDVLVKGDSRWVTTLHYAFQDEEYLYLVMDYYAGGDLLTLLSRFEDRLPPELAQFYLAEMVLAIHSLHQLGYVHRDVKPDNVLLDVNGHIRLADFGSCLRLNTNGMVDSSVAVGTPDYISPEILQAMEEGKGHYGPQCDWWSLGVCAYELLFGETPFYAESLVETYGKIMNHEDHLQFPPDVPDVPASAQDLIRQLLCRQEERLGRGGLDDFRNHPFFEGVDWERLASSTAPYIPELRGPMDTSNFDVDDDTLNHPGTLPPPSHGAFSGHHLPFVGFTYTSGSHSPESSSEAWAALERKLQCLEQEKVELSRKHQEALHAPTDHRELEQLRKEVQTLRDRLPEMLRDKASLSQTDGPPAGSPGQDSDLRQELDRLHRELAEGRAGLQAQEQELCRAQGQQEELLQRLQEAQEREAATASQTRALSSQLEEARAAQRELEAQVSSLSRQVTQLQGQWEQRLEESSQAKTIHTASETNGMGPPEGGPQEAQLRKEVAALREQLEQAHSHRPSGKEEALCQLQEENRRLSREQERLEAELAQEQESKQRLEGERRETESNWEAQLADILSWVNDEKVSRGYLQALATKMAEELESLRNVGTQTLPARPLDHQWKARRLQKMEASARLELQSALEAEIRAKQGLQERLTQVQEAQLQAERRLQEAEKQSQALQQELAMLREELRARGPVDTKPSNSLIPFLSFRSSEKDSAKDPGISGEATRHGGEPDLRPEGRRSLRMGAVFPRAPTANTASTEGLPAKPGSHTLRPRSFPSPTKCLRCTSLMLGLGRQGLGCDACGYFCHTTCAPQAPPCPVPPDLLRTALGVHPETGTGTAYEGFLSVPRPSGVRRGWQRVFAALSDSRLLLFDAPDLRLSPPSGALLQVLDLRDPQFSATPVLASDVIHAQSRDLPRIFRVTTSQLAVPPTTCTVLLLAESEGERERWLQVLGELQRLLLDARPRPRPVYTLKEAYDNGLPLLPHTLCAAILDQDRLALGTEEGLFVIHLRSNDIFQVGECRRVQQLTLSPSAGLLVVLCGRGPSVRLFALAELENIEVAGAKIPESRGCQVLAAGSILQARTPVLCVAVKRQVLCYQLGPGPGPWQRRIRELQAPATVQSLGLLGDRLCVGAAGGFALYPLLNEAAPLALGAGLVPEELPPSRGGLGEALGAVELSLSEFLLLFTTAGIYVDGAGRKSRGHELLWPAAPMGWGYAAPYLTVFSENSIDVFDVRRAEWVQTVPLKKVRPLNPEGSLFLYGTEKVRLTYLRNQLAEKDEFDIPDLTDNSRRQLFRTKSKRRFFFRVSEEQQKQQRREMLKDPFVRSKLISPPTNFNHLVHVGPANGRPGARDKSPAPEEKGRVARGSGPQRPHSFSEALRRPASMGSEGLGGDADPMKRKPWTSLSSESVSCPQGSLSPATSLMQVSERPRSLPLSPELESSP
Procedure, shortened: as §1

[7] = target: T7, 380 human recombinant protein kinases (Homo sapiens, UniProt Q6SA08); conditions: TSSK4(h), read-out: Inhibition rate (%)
T7 construct: purchased Eurofins (Celle Lévescault)
T7 sequence (Q6SA08 1-328): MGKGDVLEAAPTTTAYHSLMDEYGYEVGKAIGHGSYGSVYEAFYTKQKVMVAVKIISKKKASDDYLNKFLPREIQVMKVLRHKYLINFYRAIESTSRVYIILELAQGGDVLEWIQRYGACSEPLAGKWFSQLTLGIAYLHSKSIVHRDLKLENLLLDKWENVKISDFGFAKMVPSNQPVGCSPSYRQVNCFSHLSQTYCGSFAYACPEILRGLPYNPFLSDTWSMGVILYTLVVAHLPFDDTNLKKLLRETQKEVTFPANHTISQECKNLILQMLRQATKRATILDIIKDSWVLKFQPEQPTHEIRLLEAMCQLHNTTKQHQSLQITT
Procedure, shortened: as §1

[8] = target: T8, 380 human recombinant protein kinases (Homo sapiens, UniProt Q92772); conditions: CDKL2(h), read-out: Inhibition rate
T8 construct: purchased Eurofins (Celle Lévescault)
T8 sequence (Q92772 1-493): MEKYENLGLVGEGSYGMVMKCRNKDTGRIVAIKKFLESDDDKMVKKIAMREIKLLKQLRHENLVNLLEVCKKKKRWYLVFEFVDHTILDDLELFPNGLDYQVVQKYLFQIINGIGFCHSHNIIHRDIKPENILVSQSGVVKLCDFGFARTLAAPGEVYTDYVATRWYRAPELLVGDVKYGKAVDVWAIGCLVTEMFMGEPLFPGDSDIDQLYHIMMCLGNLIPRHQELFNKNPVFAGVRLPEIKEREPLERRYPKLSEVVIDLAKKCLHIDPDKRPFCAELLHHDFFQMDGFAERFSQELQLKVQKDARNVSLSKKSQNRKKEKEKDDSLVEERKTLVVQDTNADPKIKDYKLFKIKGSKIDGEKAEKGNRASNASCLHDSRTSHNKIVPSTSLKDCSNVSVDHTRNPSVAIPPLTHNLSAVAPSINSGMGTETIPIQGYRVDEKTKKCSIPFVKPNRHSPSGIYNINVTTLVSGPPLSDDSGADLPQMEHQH
Procedure, shortened: as §1

[9] = target: T9, 380 human recombinant protein kinases (Homo sapiens, UniProt Q96L34); conditions: MARK4(h), read-out: Inhibition rate
T9 construct: purchased Eurofins (Celle Lévescault)
T9 sequence (Q96L34 1-752): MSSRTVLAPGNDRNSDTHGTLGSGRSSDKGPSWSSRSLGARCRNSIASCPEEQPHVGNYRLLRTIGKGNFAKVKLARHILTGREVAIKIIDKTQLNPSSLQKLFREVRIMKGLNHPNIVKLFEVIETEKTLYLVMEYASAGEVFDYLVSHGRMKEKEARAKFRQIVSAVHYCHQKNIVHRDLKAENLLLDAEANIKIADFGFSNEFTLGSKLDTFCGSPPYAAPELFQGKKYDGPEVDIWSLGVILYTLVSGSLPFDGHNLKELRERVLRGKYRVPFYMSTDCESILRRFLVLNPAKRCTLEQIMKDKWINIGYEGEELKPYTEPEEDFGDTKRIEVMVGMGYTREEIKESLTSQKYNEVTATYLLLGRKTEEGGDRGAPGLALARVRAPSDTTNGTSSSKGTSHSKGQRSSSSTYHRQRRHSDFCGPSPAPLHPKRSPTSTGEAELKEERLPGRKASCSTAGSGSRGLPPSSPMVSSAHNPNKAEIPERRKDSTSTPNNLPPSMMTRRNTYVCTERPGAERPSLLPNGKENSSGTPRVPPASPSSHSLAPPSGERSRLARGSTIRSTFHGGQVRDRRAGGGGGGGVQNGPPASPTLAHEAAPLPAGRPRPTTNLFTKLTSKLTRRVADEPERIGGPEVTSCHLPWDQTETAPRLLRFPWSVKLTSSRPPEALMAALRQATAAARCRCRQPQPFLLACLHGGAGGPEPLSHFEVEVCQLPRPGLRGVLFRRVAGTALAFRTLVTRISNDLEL
Procedure, shortened: as §1

[10] = target: T10, 380 human recombinant protein kinases (Homo sapiens, UniProt Q9Y243); conditions: PKBγ(h), read-out: Inhibition rate
T10 construct: purchased Eurofins (Celle Lévescault)
T10 sequence (Q9Y243 whole entry): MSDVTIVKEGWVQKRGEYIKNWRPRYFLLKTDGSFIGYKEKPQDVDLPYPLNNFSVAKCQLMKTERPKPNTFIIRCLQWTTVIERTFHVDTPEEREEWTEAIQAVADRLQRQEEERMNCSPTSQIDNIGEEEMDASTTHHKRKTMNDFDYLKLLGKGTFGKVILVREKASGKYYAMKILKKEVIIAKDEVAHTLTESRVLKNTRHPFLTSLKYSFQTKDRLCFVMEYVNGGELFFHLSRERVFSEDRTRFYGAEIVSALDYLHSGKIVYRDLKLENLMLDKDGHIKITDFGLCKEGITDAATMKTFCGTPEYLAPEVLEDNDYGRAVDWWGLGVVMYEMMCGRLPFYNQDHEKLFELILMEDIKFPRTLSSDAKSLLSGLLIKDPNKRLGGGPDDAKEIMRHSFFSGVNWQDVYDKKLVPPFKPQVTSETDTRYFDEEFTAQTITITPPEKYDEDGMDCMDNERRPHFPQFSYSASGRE
Procedure, shortened: as §1

SMILES: C=CC(=O)Nc1cc(-c2cc(-c3cc4c([nH]3)CCNC4=O)ccn2)ccc1OC(F)(F)F [compound 11]
- inhibition at 0.01 µM ([1]; 10 nM): -9%
- inhibition at 0.1 µM ([1]; 100 nM): -4%
- inhibition at 1 µM ([1]; 1000 nM): -10%
- inhibition at 0.01 µM ([2]; 10 nM): 10%
- inhibition at 0.1 µM ([2]; 100 nM): 14%
- inhibition at 1 µM ([2]; 1000 nM): 26%
- inhibition at 0.01 µM ([3]; 10 nM): 8%
- inhibition at 0.1 µM ([3]; 100 nM): 2%
- inhibition at 1 µM ([3]; 1000 nM): 6%
- inhibition at 0.01 µM ([4]; 10 nM): -17%
- inhibition at 0.1 µM ([4]; 100 nM): -14%
- inhibition at 1 µM ([4]; 1000 nM): -12%
- inhibition at 0.01 µM ([5]; 10 nM): -2%
- inhibition at 0.1 µM ([5]; 100 nM): -5%
- inhibition at 1 µM ([5]; 1000 nM): 3%
- inhibition at 0.01 µM ([6]; 10 nM): -13%
- inhibition at 0.1 µM ([6]; 100 nM): 2%
- inhibition at 1 µM ([6]; 1000 nM): 12%
- inhibition at 0.01 µM ([7]; 10 nM): 3%
- inhibition at 0.1 µM ([7]; 100 nM): 5%
- inhibition at 1 µM ([7]; 1000 nM): 2%
- inhibition at 0.01 µM ([8]; 10 nM): 31%
- inhibition at 0.1 µM ([8]; 100 nM): 50%
- inhibition at 1 µM ([8]; 1000 nM): 54%
- inhibition at 0.01 µM ([9]; 10 nM): -10%
- inhibition at 0.1 µM ([9]; 100 nM): -2%
- inhibition at 1 µM ([9]; 1000 nM): -4%
- inhibition at 0.01 µM ([10]; 10 nM): 0%
- inhibition at 0.1 µM ([10]; 100 nM): 3%
- inhibition at 1 µM ([10]; 1000 nM): 9%
